Results reported in patent US20250346597A1, “CONDENSED HETEROCYCLIC COMPOUNDS AS INHIBITOR OF DIACYLGLYCEROL KINASES” (BEONE MEDICINES I GMBH, priority 2023, published 2025).
pIC50: −log10 of the molar value.

Legend:
DGKα = DGKα (Homo sapiens (Human), UniProt P23743); assay: Biochemical DGK IC50 assay (ADP-Glo, lipid micelle substrate), DGKα; conditions: full length DGKα […], ATP 140 μM, DAG 80 μM; further: full length DGKα 7.5 nM
Outline: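 Luminescent ADP-Glo detection followed a 1 h room-temperature reaction of full-length DGKα on DAG/PS micelles, in HEPES buffer with 10 mM MgCl2, 0.01 mM CaCl2, 0.1 mM Na3VO4, BSA and Tween-20. IC50 derived from inhibition across increasing compound concentrations.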

DGKζ = DGKζ (Homo sapiens (Human), UniProt Q13574); assay: Biochemical DGK IC50 assay (ADP-Glo, lipid micelle substrate), DGKζ; conditions: full length DGKζ 0.5 nM, ATP 140 μM, DAG 80 μM
Sequence of DGKζ (Q13574 other isoform, or with tags, fused parts or gaps): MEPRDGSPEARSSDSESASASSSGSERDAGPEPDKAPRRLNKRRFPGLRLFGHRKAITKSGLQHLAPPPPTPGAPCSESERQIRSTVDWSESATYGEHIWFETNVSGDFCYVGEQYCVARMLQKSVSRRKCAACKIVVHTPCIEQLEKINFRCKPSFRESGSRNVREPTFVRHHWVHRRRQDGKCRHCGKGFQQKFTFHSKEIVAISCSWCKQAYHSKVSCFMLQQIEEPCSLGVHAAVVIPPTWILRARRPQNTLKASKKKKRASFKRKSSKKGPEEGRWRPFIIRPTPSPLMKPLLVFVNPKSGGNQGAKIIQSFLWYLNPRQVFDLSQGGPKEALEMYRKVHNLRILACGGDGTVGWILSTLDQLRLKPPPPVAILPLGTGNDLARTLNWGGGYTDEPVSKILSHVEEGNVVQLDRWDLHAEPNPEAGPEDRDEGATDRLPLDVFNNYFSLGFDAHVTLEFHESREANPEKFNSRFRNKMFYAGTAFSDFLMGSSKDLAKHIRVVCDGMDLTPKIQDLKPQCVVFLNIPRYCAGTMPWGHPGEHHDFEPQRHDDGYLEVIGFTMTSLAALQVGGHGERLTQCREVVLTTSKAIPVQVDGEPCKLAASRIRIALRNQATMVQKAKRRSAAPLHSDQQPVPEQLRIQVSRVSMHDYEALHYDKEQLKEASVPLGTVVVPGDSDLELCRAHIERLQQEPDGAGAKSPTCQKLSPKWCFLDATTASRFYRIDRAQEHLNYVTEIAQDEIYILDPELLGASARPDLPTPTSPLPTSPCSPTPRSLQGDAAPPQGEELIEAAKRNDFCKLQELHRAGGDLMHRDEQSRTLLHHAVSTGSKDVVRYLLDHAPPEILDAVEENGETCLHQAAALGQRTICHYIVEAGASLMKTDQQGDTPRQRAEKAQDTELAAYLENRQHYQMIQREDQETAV
Outline: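 ADP-Glo luminescence measured ADP made in a 1 h room-temperature reaction. The enzyme was Sf9-expressed, purified full-length human DGKζ, and the substrate was DAG/PS micelles. Assay buffer held 50 mM HEPES, 10 mM MgCl2, 0.01 mM CaCl2, 0.1 mM Na3VO4 and 0.01% BSA. IC50 was derived from activity inhibition over a compound concentration series.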

Sequence of DGKα (P23743 whole entry): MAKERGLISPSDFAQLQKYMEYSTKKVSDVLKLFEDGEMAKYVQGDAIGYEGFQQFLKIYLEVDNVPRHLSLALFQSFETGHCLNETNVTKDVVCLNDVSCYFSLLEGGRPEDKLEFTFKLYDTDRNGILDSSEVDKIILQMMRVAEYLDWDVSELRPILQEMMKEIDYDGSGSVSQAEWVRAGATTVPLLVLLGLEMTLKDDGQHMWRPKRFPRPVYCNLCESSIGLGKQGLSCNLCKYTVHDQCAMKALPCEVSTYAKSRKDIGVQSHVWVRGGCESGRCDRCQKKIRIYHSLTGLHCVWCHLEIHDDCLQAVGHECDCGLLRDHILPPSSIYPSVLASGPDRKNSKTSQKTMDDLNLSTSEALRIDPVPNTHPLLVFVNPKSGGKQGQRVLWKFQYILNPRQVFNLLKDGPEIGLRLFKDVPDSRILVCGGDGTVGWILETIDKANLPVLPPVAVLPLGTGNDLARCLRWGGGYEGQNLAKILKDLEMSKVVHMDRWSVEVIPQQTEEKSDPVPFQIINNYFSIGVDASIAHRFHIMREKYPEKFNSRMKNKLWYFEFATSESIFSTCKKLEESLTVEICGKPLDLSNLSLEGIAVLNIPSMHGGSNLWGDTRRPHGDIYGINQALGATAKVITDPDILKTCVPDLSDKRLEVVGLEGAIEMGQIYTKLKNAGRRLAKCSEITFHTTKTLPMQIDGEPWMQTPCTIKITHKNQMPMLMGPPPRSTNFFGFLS

Row | Compound | pIC50 (DGKα) | pIC50 (DGKζ)
1 | [2H]C([2H])([2H])C(c1ccc2nc(C)sc2n1)N1C[C@H](CC)N(c2cc(=O)n(C([2H])([2H])[2H])c3cn(CC#N)nc23)C[C@H]1CC (single isomer, unassigned) [Compound A142a] | 5.80 | 5.87
2 | [2H]C([2H])([2H])C(c1ccc2nc(C)sc2n1)N1C[C@H](CC)N(c2cc(=O)n(C([2H])([2H])[2H])c3cn(CC#N)nc23)C[C@H]1CC (single isomer, unassigned) [Compound A142b] | 6.97 | 7.70
3 | CC[C@H]1CN(C(C)c2ccc3nc(COC)sc3n2)[C@H](CC)CN1c1cc(=O)n(C)c2cn(CC#N)nc12 (single isomer, unassigned) [Compound A143a] | 5.50 | 5.67
4 | CC[C@H]1CN(C(C)c2ccc3nc(COC)sc3n2)[C@H](CC)CN1c1cc(=O)n(C)c2cn(CC#N)nc12 (single isomer, unassigned) [Compound A143b] | 6.82 | 7.41
5 | CC[C@H]1CN(C(C)c2ccc3cc(C(F)F)sc3n2)[C@H](CC)CN1c1cc(=O)n(C)c2cn(CC#N)nc12 (single isomer, unassigned) [Compound A144a] | 6.57 | 5.89
6 | CC[C@H]1CN(C(C)c2ccc3cc(C(F)F)sc3n2)[C@H](CC)CN1c1cc(=O)n(C)c2cn(CC#N)nc12 (single isomer, unassigned) [Compound A144b] | 7.74 | 6.87
7 | CC[C@H]1CN(C(C)c2ccc3nc(COC)sc3c2)[C@H](CC)CN1c1cc(=O)n(C)c2cn(CC#N)nc12 (single isomer, unassigned) [Compound A145a] | 6.26 | 7.33
8 | CC[C@H]1CN(C(C)c2ccc3nc(COC)sc3c2)[C@H](CC)CN1c1cc(=O)n(C)c2cn(CC#N)nc12 (single isomer, unassigned) [Compound A145b] | 5.47 | 6.03
9 | CC[C@H]1CN(C(C)c2ccc3nc(OC4CC4)sc3n2)[C@H](CC)CN1c1cc(=O)n(C)c2cn(CC#N)nc12 (single isomer, unassigned) [Compound A146a] | 5.62 | 5.76
10 | CC[C@H]1CN(C(C)c2ccc3nc(OC4CC4)sc3n2)[C@H](CC)CN1c1cc(=O)n(C)c2cn(CC#N)nc12 (single isomer, unassigned) [Compound A146b] | 6.69 | 6.98
11 | CC[C@H]1CN(C(C)c2ccc3nc(OCCF)sc3n2)[C@H](CC)CN1c1cc(=O)n(C)c2cn(CC#N)nc12 (single isomer, unassigned) [Compound A147a] | 6.74 | 6.82
12 | CC[C@H]1CN(C(C)c2ccc3nc(OCCF)sc3n2)[C@H](CC)CN1c1cc(=O)n(C)c2cn(CC#N)nc12 (single isomer, unassigned) [Compound A147b] | 5.80 | 5.82
13 | CC[C@H]1CN(C(C)c2ccc3cc(C(F)F)sc3n2)[C@H](CC)CN1c1nc(=O)n(C)c2cn(CC#N)nc12 (single isomer, unassigned) [Compound A148a] | 5.89 | 5.64
14 | CC[C@H]1CN(C(C)c2ccc3cc(C(F)F)sc3n2)[C@H](CC)CN1c1nc(=O)n(C)c2cn(CC#N)nc12 (single isomer, unassigned) [Compound A148b] | 7.44 | 7.35
15 | CC[C@H]1CN(C(C)c2ccc3nc(C)cn3n2)[C@H](CC)CN1c1cc(=O)n(C)c2cn(CC#N)nc12 (single isomer, unassigned) [Compound A149a] | 5.95 | 5.57
16 | CC[C@H]1CN(C(C)c2ccc3nc(C)cn3n2)[C@H](CC)CN1c1cc(=O)n(C)c2cn(CC#N)nc12 (single isomer, unassigned) [Compound A149b] | 7.37 | 7.03

Row | Compound | pIC50 (DGKα) | pIC50 (DGKζ)
17 | CC[C@H]1CN(C(C)c2ccc3nc(C)cn3n2)[C@H](CC)CN1c1nc(=O)n(C)c2cn(CC#N)nc12 (single isomer, unassigned) [Compound A150a] | 5.15 | < 5.00
18 | CC[C@H]1CN(C(C)c2ccc3nc(C)cn3n2)[C@H](CC)CN1c1nc(=O)n(C)c2cn(CC#N)nc12 (single isomer, unassigned) [Compound A150b] | 6.91 | 6.57
19 | CC[C@H]1CN(C(C)c2ccn3ncc(C)c3n2)[C@H](CC)CN1c1cc(=O)n(C)c2cn(CC#N)nc12 (single isomer, unassigned) [Compound A151a] | 5.14 | 5.34
20 | CC[C@H]1CN(C(C)c2ccn3ncc(C)c3n2)[C@H](CC)CN1c1cc(=O)n(C)c2cn(CC#N)nc12 (single isomer, unassigned) [Compound A151b] | 6.81 | 8.12
21 | CC[C@H]1CN(C(C)c2ccn3nc(C)cc3n2)[C@H](CC)CN1c1cc(=O)n(C)c2cn(CC#N)nc12 (single isomer, unassigned) [Compound A152a] | 5.72 | 5.51
22 | CC[C@H]1CN(C(C)c2ccn3nc(C)cc3n2)[C@H](CC)CN1c1cc(=O)n(C)c2cn(CC#N)nc12 (single isomer, unassigned) [Compound A152b] | 7.35 | 7.18
23 | CCc1cn2nc(C(C)N3C[C@H](CC)N(c4cc(=O)n(C)c5cn(CC#N)nc45)C[C@H]3CC)ccc2n1 (single isomer, unassigned) [Compound A153a] | 5.57 | < 5.00
24 | CCc1cn2nc(C(C)N3C[C@H](CC)N(c4cc(=O)n(C)c5cn(CC#N)nc45)C[C@H]3CC)ccc2n1 (single isomer, unassigned) [Compound A153b] | 7.14 | 6.71
25 | CC[C@H]1CN(C(C)c2ccn3nccc3n2)[C@H](CC)CN1c1cc(=O)n(C)c2cn(CC#N)nc12 (single isomer, unassigned) [Compound A154a] | 6.30 | < 5.00
26 | CC[C@H]1CN(C(C)c2ccn3nccc3n2)[C@H](CC)CN1c1cc(=O)n(C)c2cn(CC#N)nc12 (single isomer, unassigned) [Compound A154b] | 7.92 | 7.26
27 | Cc1cc2nc(C(C)N3C[C@H](C)N(c4cc(=O)n(C)c5cn(CC#N)nc45)C[C@H]3C)ccc2s1 (single isomer, unassigned) [Compound A155a] | 5.94 | 7.70
28 | Cc1cc2nc(C(C)N3C[C@H](C)N(c4cc(=O)n(C)c5cn(CC#N)nc45)C[C@H]3C)ccc2s1 (single isomer, unassigned) [Compound A155b] | 6.86 | 5.71
29 | CC[C@H]1CN(C(C)c2ccn3nc(C)c(C)c3n2)[C@H](CC)CN1c1cc(=O)n(C)c2cn(CC#N)nc12 (single isomer, unassigned) [Compound A156a] | < 5.00 | 5.29
30 | CC[C@H]1CN(C(C)c2ccn3nc(C)c(C)c3n2)[C@H](CC)CN1c1cc(=O)n(C)c2cn(CC#N)nc12 (single isomer, unassigned) [Compound A156b] | 6.51 | 7.64
31 | CC[C@H]1CN(C(C)c2ccn3nc(C)cc3n2)[C@H](CC)CN1c1nc(=O)n(C)c2cn(CC#N)nc12 (single isomer, unassigned) [Compound A157a] | < 5.00 | < 5.00
32 | CC[C@H]1CN(C(C)c2ccn3nc(C)cc3n2)[C@H](CC)CN1c1nc(=O)n(C)c2cn(CC#N)nc12 (single isomer, unassigned) [Compound A157b] | 6.74 | 6.78
